Publication PMC4349960, “[^18F]FE@SUPPY: a suitable PET tracer for the adenosine A3 receptor? An in vivo study in rodents” (European Journal of Nuclear Medicine and Molecular Imaging, 2015)

How the values were obtained:
[1] = molecular target: T1, CHO cells expressing the human A3R (CHO-A3) (Homo sapiens, UniProt P0DMS8); test: Xenograft mouse model PET (CHO vs CHO-A3 solid tissue masses); assay type: in vivo, mice
T1 construct: Karl-Norbert Klotz (University of Würzburg); host or cells: CHO cells stably transfected (CHO-A3), grown as subcutaneous masses in NMRI-nu/nu mice
T1 sequence (P0DMS8 1-318): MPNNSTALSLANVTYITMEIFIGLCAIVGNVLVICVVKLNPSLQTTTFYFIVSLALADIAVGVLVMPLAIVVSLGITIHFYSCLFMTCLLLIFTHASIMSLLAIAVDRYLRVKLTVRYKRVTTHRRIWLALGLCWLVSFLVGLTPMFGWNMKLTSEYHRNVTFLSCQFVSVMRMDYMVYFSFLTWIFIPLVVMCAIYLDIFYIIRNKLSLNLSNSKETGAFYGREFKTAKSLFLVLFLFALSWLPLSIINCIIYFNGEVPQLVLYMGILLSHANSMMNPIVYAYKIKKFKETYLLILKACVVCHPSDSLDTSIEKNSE
Protocol: Adult male Sprague-Dawley rats (Him:OFA; Animal Research Institute, Himberg, Austria) weighing 307 ± 35 g were kept under controlled environmental conditions (22 ± 1 °C, 40 – 70 % humidity, 12-h light/dark cycle) with free access to standard laboratory animal diet and tap water. Before being used in the experiments, the animals were allowed to adapt to the new conditions for at least a week. Prior to each experiment, the animals were placed in a chamber containing 2.5 % isoflurane in oxygen. When unconscious, the animals were taken from the chamber and kept under anaesthesia with 1.8 % isoflurane administered via a mask during the whole experiment. Pathogen-free, female NMRI-nu/nu mice (Taconic, Denmark) weighing 28.1 ± 0.8 g were housed under sterile conditions. Mice were injected subcutaneously into both upper flanks with 100 μL of a cell suspension in phosphate-buffered saline containing 10^6 CHO cells (right side) or 10^6 CHO-A3 cells (left side). During the imaging periods of 60 or 90 min (rats or xenografted mice, respectively) the isoflurane level was adjusted depending on the depth of anaesthesia. A humidifier was used to moisten the gas mixture before supplying it to the animal.
Around 17 days after cell inoculation, animals in the xenograft group were positioned in the imaging chamber and a dynamic 90-min PET scan was initiated at the start of [^18F]FE@SUPPY injection (2.21 ± 0.75 MBq dissolved in 100 μl physiological saline, pH 7.4; three animals) via a tail vein under isoflurane anaesthesia (2 %). Additionally, in this group, [^18F]FDG PET was performed 1 day prior to the [^18F]FE@SUPPY experiments. […] In brief, mice were deprived of food for 6 – 8 h before [^18F]FDG injection via a tail vein. Mice had access to drinking water at all times. Body warming was achieved by placing the entire cage on a heating pad kept at 38 °C. Warming was started around 30 min before tracer injection and was continued throughout the uptake and imaging period. [^18F]FDG (6.03 ± 1.31 MBq dissolved in 100 μL physiological saline, pH 7.4; three animals) was injected via a tail vein under isoflurane anaesthesia (2 %). Mice were kept under isoflurane anaesthesia throughout the whole uptake and imaging period. A 10-min static image was acquired at 1 h after [^18F]FDG injection. […]
For all PET scans (rats and xenografted mice), list mode data were acquired with an energy window of 350 – 750 keV (rats) or 250 – 750 keV (mice) and a 6-ns timing window. Before each PET scan, a transmission scan using a ^57Co point source was recorded over 10 min. […] A calibration factor for converting units of microPET images into absolute radioactivity concentration units was first generated by imaging a phantom filled with a known concentration of [^18F]FDG. […]

[2] = parameters: method as in PMID 18158944; details: cited from earlier work
[3] = parameters: method as in PMID 20447552; details: rats, 30 min after injection; cited from earlier work

In the case of `CCSC(=O)c1c(CC)nc(-c2ccccc2)c(C(=O)OCC[18F])c1CC` [[^18F]FE@SUPPY, 5-(2-[^18F]fluoroethyl)-2,4-diethyl-3-(ethylsulfanylcarbonyl)-6-phenylpyridine-5-carboxylate], the “Xenograft model of human A3R, finding” value ([1]; compared to [^18F]FDG) is given as “Specific uptake in CHO-A3 solid mass (p ≤ 0.03) compared to [^18F]FDG”, the “increased uptake (AUC) in CHO-A3 versus CHO tissue masses” value ([1]; xenografted NMRI-nu/nu mice, 90-min PET) is given as “around 1.42 fold” and the Biodistribution in rats [2] is given as “Followed mainly A3 pattern (except testes) [3]”. For the same molecule, the “Bone uptake in rats” value [2] was “None [3]”, the “Brain to blood uptake ratio in biodistribution experiments” value ([2]; rats) was “up to 5.4” and the “brain-to-blood ratios over time” value ([2]; rats) was “increase over time”. The metabolites in brain [3] was “no metabolites” and the “parent compound left in plasma” value [3] was 30%.
